Common to all, as to assay: Fixed Ratio Drug Combination Assay, cell proliferation (CellTiter Glo)
Holding throughout (type): cell-based, human

The test system of assay [1] is HCT116. The following applies: for Ymin/T0: 72 hours; for IC50: Homo sapiens, HCT-116, 72 hours, read-out: gIC50. Here is the method:
(§1) Combination drug tests with Compounds A and B were conducted using a panel of cell lines from human colon cancers (n=25) (Table 1). Cell lines were purchased commercially [from ATCC (Manassas, Va., USA) or DSMZ (Braunschweig, Germany)] and grown in RPMI-1640 supplemented with 2 mM glutamine, 1 mM sodium pyruvate and 10% fetal bovine serum and maintained at 37° C. and 5% CO2 in a humid incubator.
(§2) The dilution design of the Fixed Ratio Drug Combination Assay can be seen in FIG. 1. First, the test compounds were prepared as 10 mM stocks in 100% dimethyl sulfoxide (DMSO). Further dilutions of the compounds were made with DMSO. The first test compound (designated as Compound A) is diluted horizontally in a 96 well microtiter plate in rows B-E using a 3-fold dilution series for 10 dilution points. A second test compound (designated as Compound B) is diluted horizontally in a separate 96 well microtiter plate in rows D-G using a 3-fold dilution series for 10 dilution points. The two compounds are combined using equal volumes from each drug plate into cell culture media. […] Compound A is individually titrated in rows B and C, while only Compound B is dosed in rows F and G of the plate. An additional 1:10 dilution of the drugs is performed in cell culture media prior to addition to the cells. Drug addition to the cells results in a further 1:2 dilution of drugs. The total dilution of the drug plate to the cells is […]. The final dosing concentration range for Compound B was 0.1-1000.0 nM and was 0.5-10000.0 nM for Compound A. The positive control consists of culture media with DMSO at 0.1% and cells and no drug. The negative control consists of culture media with DMSO at 0.1%. solution.
(§3) Assays were performed in 96 well microtiter plates with appropriate seeding densities estimated from previous studies of each cell line. Following dosing, the cell lines are incubated at 37° C., 5% CO2 in humid air for 72 hours. Cell proliferation was measured using the CellTiter Glo (Promega Corporation, Madison, Wis., USA) reagent according to the manufacturer's protocol. The plates are treated with CellTiter Glo solution and are analyzed for RLU (relative light units) using a Molecular Devices SpectraMax M5 (Sunnyvale, Calif., USA) plate reader.
(§4) Results are expressed as a percentage of the number of cells present at the time of compound addition value (T0) and plotted against compound(s) concentration. The percent intensity values were used in model 205 of the IDBS XLfit plug-in for Microsoft Excel to calculate gIC50 values using a 4 parameter logistical fit. Background correction is made by subtraction of values from wells containing no cells. The midpoint of the growth window (the gIC50) falls half way between the number of cells at the time of compound addition and the growth of control cells treated with DMSO at 72 hrs. The number of cells at time zero is divided from the intensity value at the bottom of the response curve (Ymin) to generate a measure for cell death (Ymin/T0). A value below 1 for Ymin/T0 indicates stronger potency with the treatment when compared to higher values. For duplicate assays, all response metrics are averaged for presentation.
(§5) Three independent metrics were used to analyze the combinatorial effects on growth inhibition of Compound B and Compound A. • 1. Excess over Highest Single Agent (EOHSA)—One standard criterion for measuring drug combinatorial effects is analyzing the effects on cell growth inhibition in absolute terms. In this case, the combination of drugs is compared to the more responsive of the two individual treatments (single agent). For each combination experiment, the percent effect relative to the highest single agent for each dose along the curve is generated. This measure of “Excess of Highest Single Agent (EOHSA)” is one of the criteria used for evaluating synergy of drug combinations. […]

The test system of assay [2] is HCT15. The conditions noted are these: for Ymin/T0: 72 hours; for IC50: Homo sapiens, HCT-15, 72 hours, read-out: gIC50. The procedure: as §1, §2, §3, §4, §5
For assay [3], the system named is SW837. The following applies: 72 hours; for IC50: Homo sapiens, read-out: gIC50. Here is the method: as §1, §2, §3, §4, §5

Turning to `COc1ncc(-c2ccc3nccc(-c4ccnnc4)c3c2)cc1NS(=O)(=O)c1ccc(F)cc1F` [Compound B, 2,4-difluoro-N-{2-(methyloxy)-5-[4-(4-pyridazinyl)-6-quinolinyl]-3-pyridinyl}benzenesulfonamide], the results for the Ymin/T0 in assay [1], in assay [2] and in assay [3] were 4.1, 2.4 and 0.8, respectively. Besides, the results for the IC50 in assay [1], in assay [2] and in assay [3] were 34.2 nM, 7.2 nM and 6.4 nM, respectively.

As for `CC(C)(C)c1nc(-c2cccc(NS(=O)(=O)c3c(F)cccc3F)c2F)c(-c2ccnc(N)n2)s1` [Compound A, N-{3-[5-(2-amino-4-pyrimidinyl)-2-(1,1-dimethylethyl)-1,3-thiazol-4-yl]-2-fluorophenyl}-2,6-difluorobenzenesulfonamide], the Ymin/T0 was 9.2 in assay [1], 6.1 in assay [2] and 2.3 in assay [3]. In addition, the IC50 in assay [1], in assay [2] and in assay [3] was > 10000 nM throughout.

The record behind these values is patent publication US20120202822A1, “COMBINATION” (priority 2009, published 2012).
